Reference: patent US11214803B2, “Modulators of YAP1 expression” (Ionis Pharmaceuticals, Inc., priority 2019, dated 2022)

Experiments:
[1] = Tolerability in Sprague-Dawley rats, body and organ weights (Example 22); type: in vivo; conditions: male Sprague-Dawley rats, 50 mg/kg s.c. weekly for 6 weeks (7 doses); for Kidney weight / Liver weight / Spleen weight: end of study; for body weight: terminal, prior to necropsy
Procedure: Terminal body weight was measured prior to necropsy. Ionis oligonucleotides that caused any changes in organ weights outside the expected range for modified oligonucleotides were excluded from further studies.

Yap1 mRNA [2] = experiment: Dose-dependent inhibition of human Yap1 in A-431 cells (Example 24, 11,000 cells per well, RTS36584, normalized to GAPDH); type: cell-based; conditions: free uptake, 48 hours; for Yap1 mRNA, % UTC: RTS36584, normalized to GAPDH; for IC50: linear regression on a log/linear plot
Procedure: Modified oligonucleotides described in the studies above were tested at various doses in A-431 cells. Cultured A-431 cells at a density of 11,000 cells per well were treated using free uptake with modified oligonucleotides diluted to concentrations described in the tables below. After approximately 48 hours, Yap1 mRNA levels were measured as previously described using the Human Yap1 primer-probe set RTS36584. Yap1 mRNA levels were normalized to GAPDH content, as measured by primer probe set RTS104 (forward sequence […], designated herein as SEQ ID NO.: 17; reverse sequence […], designated herein as SEQ ID NO.: 18; probe sequence […], designated herein as SEQ ID NO.: 19). Results are presented in the tables below as percent control of the amount of Yap1 mRNA relative to untreated control cells (% UTC). IC50s were calculated using a linear regression on a log/linear plot of the data in excel.

SCC25 cells = experiment: Cell proliferation assay in SCC25 cells, CellTiter-Glo (Example 25); type: cell-based, human; conditions: free uptake, 144 hours
Procedure: Modified oligonucleotides described in the studies above were tested at various doses in squamous cell carcinoma cell SCC25. A control oligonucleotide 792169 (a 3-10-3 cET gapmer with a full phosphorothioate backbone, […], designated herein as SEQ ID No.: 2940; is not complementary to any known human gene) was also tested.
Cultured SCC25 cells at a density of 1,000 cells/well were treated using free uptake with modified oligonucleotides diluted to concentrations described in the tables below. After approximately 144 hours, cell proliferation was measured using the luminescent cell viability CellTiter-Glo® 2.0 Assay (Promega). Results are presented in the tables below as percent control of the amount of luminescence in samples treated with modified oligonucleotides relative to untreated control cells (% UTC).

Yap1 mRNA [3] = experiment: Inhibition of human Yap1 mRNA in epidermoid carcinoma A-431 xenograft tumors (Example 27); type: in vivo; conditions: A-431 xenografts in NCr-Foxn1nu mice, 6-8 hours post final dose, relative to PBS
Procedure: An epidermoid carcinoma A-431 xenograft tumor model was used to evaluate activity of modified oligonucleotides targeted to human Yap1. Five million A-431 cells in 30% matrigel were implanted subcutaneously into the flanks of female NCr-Foxn1nu mice (from Taconic) at 4-6 weeks of age. When tumors reached an average volume of 40 mm^3, approximately two weeks post-implantation, groups of four mice each were administered at either 25 mg/kg or 50 mg/kg daily with modified oligonucleotides for […] (5 doses). Tumors were collected 6-8 hours post final dose and tested for Yap1 mRNA knockdown by RT-qPCR. Yap1 mRNA levels were measured as previously described using the Human Yap1 primer-probe set RTS4814. Yap1 mRNA levels were normalized to actin-beta content, as measured by primer probe set RTS5002. Results are presented in the tables below as percent control of the amount of Yap1 mRNA relative to PBS treated animals (% control).

[4] = Cynomolgus monkey tolerability, body and organ weight measurements (Example 34); type: in vivo; conditions: cynomolgus monkeys, 35 mg/kg subcutaneously; for Heart weight / Kidney weight / Liver with gallbladder weight / Spleen weight: necropsy; for Terminal Body Weight: prior to necropsy
Procedure: Cynomolgus monkeys were treated with Ionis modified oligonucleotides selected from studies described in the Examples above. Modified oligonucleotide tolerability was evaluated.
During the study period, the monkeys were observed twice daily for signs of illness or distress. Any animal experiencing more than momentary or slight pain or distress due to the treatment, injury or illness was treated by the veterinary staff with approved analgesics or agents to relieve the pain after consultation with the Study Director. Any animal in poor health or in a possible moribund condition was identified for further monitoring and possible euthanasia. Scheduled euthanasia of the animals was conducted on day 86 approximately 48 hours after the last dose by exsanguination while under deep anesthesia. The protocols described in the Example were approved by the Institutional Animal Care and Use Committee (IACUC).
To evaluate the effect of Ionis oligonucleotides on the overall health of the animals, body and organ weights were measured. Terminal body weight was measured prior to necropsy.

[5] = Cynomolgus monkey tolerability, pro-inflammatory proteins analysis, Complement C3 and CRP (Example 34); type: in vivo; conditions: cynomolgus monkeys, 35 mg/kg subcutaneously; for CRP: day 44
Procedure: To evaluate any inflammatory effect of Ionis oligonucleotides in cynomolgus monkeys, blood samples were taken for analysis. The monkeys were fasted overnight prior to blood collection. On day 42 (pre-dose and 24 hours post-dose), approximately 0.8 mL of blood was collected from each animal and put into tubes without anticoagulant for serum separation. […] Complement C3 were measured using a Toshiba 120 FR NEO chemistry analyzer (Toshiba Co., Japan). […] Another marker of inflammation, C-Reactive Protein (CRP) was tested together with the clinical chemistry parameters tested for liver function above.

[6] = Cynomolgus monkey tolerability, coagulation (Example 34); type: in vivo; conditions: cynomolgus monkeys, 35 mg/kg subcutaneously, day 44
Procedure: To evaluate effect of Ionis modified oligonucleotides on coagulation in cynomolgus monkeys, blood samples of approximately 0.9 mL were collected from each of the available study animals on day 44. The samples were collected in tubes containing 3.2% sodium citrate. Coagulation parameters tested include Activated partial thromboplastin time (APTT), prothrombin time (PT) and Figrinogen (FIB).

[7] = Cynomolgus monkey tolerability, urine analysis (Example 34); conditions: cynomolgus monkeys, 35 mg/kg subcutaneously, day 44
Procedure: Prior to the study, the monkeys were kept in quarantine during which the animals were observed daily for general health. The monkeys were 2-4 years old and weighed 2-4 kg. Eleven groups of 4 randomly assigned male cynomolgus monkeys each were injected subcutaneously with Ionis oligonucleotide or saline in a clock-wise rotation between four different sites on the back. Following loading doses on days 1, 3, 5 and 7, the monkeys were dosed once per week (on days 14, 21, 28, 35, and 42) with 35 mg/kg of Ionis oligonucleotide.
Food was removed overnight the day before fresh urine collection, but water was supplied. Fresh urine samples for urinalysis and urine chemistry were collected from all animals using a clean cage pan on wet ice (first in the morning) on day 44. Urinalysis/Urine Chemistry parameters creatinine (UCRE), microprotein (UTP), urine microalbumin (UALB), and protein/creatinine (P/C) ratio were measured using a Toshiba 120FR automated chemistry analyzer (Toshiba Co., Japan).

Substance | Yap1 mRNA, % UTC (Yap1 mRNA [2]; 0.002 μM) [% UTC] | Yap1 mRNA, % UTC (Yap1 mRNA [2]; 0.008 μM) [% UTC] | Yap1 mRNA, % UTC (Yap1 mRNA [2]; 0.04 μM) [% UTC] | Yap1 mRNA, % UTC (Yap1 mRNA [2]; 0.2 μM) [% UTC] | Yap1 mRNA, % UTC (Yap1 mRNA [2]; 1 μM) [% UTC] | cell proliferation (luminescence) % UTC (SCC25 cells; 0.04 μM) [% UTC] | cell proliferation (luminescence) % UTC (SCC25 cells; 0.2 μM) [% UTC] | cell proliferation (luminescence) % UTC (SCC25 cells; 1 μM) [% UTC] | cell proliferation (luminescence) % UTC (SCC25 cells; 5 μM) [% UTC] | Yap1 mRNA in tumors, % control (Yap1 mRNA [3]; 25 mpk daily (5 doses)) [% control] | Yap1 mRNA in tumors, % control (Yap1 mRNA [3]; 50 mpk daily (5 doses)) [% control] | Heart weight [4] [g] | Kidney weight [4] [g] | Liver with gallbladder weight [4] [g] | Spleen weight [4] [g] | Terminal Body Weight [4] [g] | Complement C3 ([5]; Day 42 (pre-dose)) [mg/dL] | Complement C3 ([5]; day 42 (24 hr post-dose)) [mg/dL] | CRP [5] [mg/L] | APTT [6] [s] | further results
1197270 (TTAAAGTGTATGTCAG; cEt gapmer with 2'-OMe nucleoside, phosphorothioate, further chemistry not given here) [compound 1197270] | 0 | 2 | 26 | 80 | 99 | 75 | 40 | 22 | 14 | 57 | 38 | 10 | 17 | 73 | 4 | 2852 | 103 | 86 | 9.8 | 17 | Kidney weight [1]: 3.6 g; Liver weight [1]: 15 g; Spleen weight [1]: 2.0 g; body weight [1]: 374 g; IC50 (Yap1 mRNA [2]): 20 nM; FIB [6]: 257 mg/dL; PT [6]: 10 s; UALB [7]: 1.3 mg/dL; UCRE [7]: 56 mg/dL; UTP [7]: 18 mg/dL
1198872 (TGTATGTCAGAAGAGT; chemically modified gapmer, further chemistry not given here) [compound 1198872] | 1 | 3 | 19 | 70 | 94 | 82 | 37 | 22 | 18 | 34 | 26 | 12 | 15 | 63 | 4 | 3126 | 103 | 96 | 1.1 | 21 | Kidney weight [1]: 3.4 g; Liver weight [1]: 17 g; Spleen weight [1]: 1.3 g; body weight [1]: 417 g; FIB [6]: 206 mg/dL; PT [6]: 10 s; UALB [7]: 0.3 mg/dL; UCRE [7]: 111 mg/dL; UTP [7]: 14 mg/dL
1198440 (AAGTGTATGTCAGAAG; cEt, 2'-MOE, 5-methylcytosine, phosphorothioate modifications, further chemistry not given here) [compound 1198440] | 0 | 1 | 14 | 69 | 96 | 73 | 33 | 22 | 16 | 32 | 21 | 11 | 15 | 65 | 3 | 2919 | 95 | 88 | 4.8 | 20 | IC50 (Yap1 mRNA [2]): 20 nM; FIB [6]: 260 mg/dL; PT [6]: 10 s; UALB [7]: 0.2 mg/dL; UCRE [7]: 53 mg/dL; UTP [7]: 13 mg/dL
